Assay results from ChEMBL document CHEMBL4382196, “Unraveling the Prenylation-Cancer Paradox in Multiple Myeloma with Novel Geranylgeranyl Pyrophosphate Synthase (GGPPS) Inhibitors” (J Med Chem, 2018).
Changes are numbered by the printed parent chain. Active and inactive are the calls of the source. The calls are words filed in the database; no cut-off is given here.

Tests used:
RPMI-8226 [1] = experiment: Induction of apoptosis in human RPMI8226 cells assessed as late apoptotic cells at 10 uM after 72 hrs by APC Annexin V/eFluor-780-viability double staining-based FACS analysis (reference value: 5.80%); type: functional
RPMI-8226 [2] = experiment: Induction of apoptosis in human RPMI8226 cells assessed as early apoptotic cells at 10 uM after 72 hrs by APC Annexin V/eFluor-780-viability double staining-based FACS analysis (reference value: 3.31%); type: functional
RPMI-8226 [3] = experiment: Induction of apoptosis in human RPMI8226 cells assessed as viable cells at 10 uM after 72 hrs by APC Annexin V/eFluor-780-viability double staining-based FACS analysis (reference value: 87.3%); type: functional; details: RPMI-8226, 72 h, read-out: Activity
RPMI-8226 [4] = experiment: Induction of apoptosis in human RPMI8226 cells assessed as necrotic cells at 10 uM after 72 hrs by APC Annexin V/eFluor-780-viability double staining-based FACS analysis (reference value: 3.60%); type: functional
[5] = molecular target: T1, Farnesyl pyrophosphate synthase (Homo sapiens) (UniProt P14324); experiment: Inhibition of human FPPS at 1 uM using [14C]-IPP and […] after 10 mins by scintillation counting relative to control
T1 sequence (whole entry): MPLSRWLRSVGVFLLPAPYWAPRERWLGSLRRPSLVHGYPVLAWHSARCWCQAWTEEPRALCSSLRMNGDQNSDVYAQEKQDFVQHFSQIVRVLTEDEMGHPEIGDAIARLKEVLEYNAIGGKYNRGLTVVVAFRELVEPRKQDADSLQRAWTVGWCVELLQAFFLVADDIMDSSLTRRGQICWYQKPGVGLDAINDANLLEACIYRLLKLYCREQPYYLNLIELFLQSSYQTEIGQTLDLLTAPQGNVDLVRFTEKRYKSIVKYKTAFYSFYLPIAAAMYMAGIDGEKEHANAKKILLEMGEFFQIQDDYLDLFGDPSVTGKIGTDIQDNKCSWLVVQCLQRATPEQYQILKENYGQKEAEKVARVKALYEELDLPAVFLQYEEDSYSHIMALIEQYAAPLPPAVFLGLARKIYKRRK

[6] = molecular target: T2, Farnesyl pyrophosphate synthase (Homo sapiens, UniProt P14324); experiment: Inhibition of human FPPS using [14C]-IPP and […] after 10 mins by scintillation counting
T2 sequence (P14324 whole entry): T1 sequence (whole entry)

[7] = molecular target: T3, Geranylgeranyl pyrophosphate synthase (Homo sapiens, UniProt O95749)
T3 sequence (O95749 whole entry): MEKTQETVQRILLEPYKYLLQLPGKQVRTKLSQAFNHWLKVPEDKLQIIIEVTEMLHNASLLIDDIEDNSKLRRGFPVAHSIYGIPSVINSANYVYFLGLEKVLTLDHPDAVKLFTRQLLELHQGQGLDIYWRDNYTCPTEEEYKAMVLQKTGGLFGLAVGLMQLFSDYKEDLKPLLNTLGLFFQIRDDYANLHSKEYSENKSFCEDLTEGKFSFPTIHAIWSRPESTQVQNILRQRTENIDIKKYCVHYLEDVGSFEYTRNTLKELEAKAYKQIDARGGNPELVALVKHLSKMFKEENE

[8] = system: T4, Geranylgeranyl pyrophosphate synthase (Homo sapiens), O95749 [Y246D]; experiment: Binding affinity to human N-terminal His6-tagged GGPPS Y246D mutant expressed in Escherichia coli BL21(DE3) assessed as enzyme-inhibitor complex formation by measuring thermal stability in presence of Mg2+ ions by differential scanning fluorimetry
T4 sequence (whole entry): T3 sequence (O95749 whole entry) with Y246D

RPMI-8226 [9] = experiment: cells; details: Homo sapiens, RPMI-8226, 72 h
MIA PaCa-2 = experiment: Antiproliferative activity against human MIAPaCa2 cells at 10 uM after 72 hrs by celltiter-glo luminescent assay; type: functional, cell-based
T98G = experiment: Antiproliferative activity against human T98G cells at 10 uM after 72 hrs by celltiter-glo luminescent assay; type: functional, cell-based
HCT-116 = experiment: Antiproliferative activity against human HCT116 cells at 10 uM after 72 hrs by celltiter-glo luminescent assay; type: functional, cell-based
A549 = experiment: Antiproliferative activity against human A549 cells at 10 uM after 72 hrs by celltiter-glo luminescent assay; type: functional, cell-based
NCI/ADR-RES = experiment: Antiproliferative activity against human NCI-ADR-RES cells after 72 hrs by celltiter-glo luminescent assay; type: functional, cell-based
HT-1080 = experiment: Antiproliferative activity against human HT1080 cells at 10 uM after 72 hrs by celltiter-glo luminescent assay; type: functional, cell-based
HT-29 = experiment: Antiproliferative activity against human HT-29 cells at 10 uM after 72 hrs by celltiter-glo luminescent assay; type: functional, cell-based
Hydroxyapatite = experiment: Binding affinity to bone mineral hydroxyapatite at 50 uM by 1H NMR assay
RPMI-8226 [10] = experiment: Induction of apoptosis in human RPMI8226 cells assessed as late apoptotic cells at 1 uM after 72 hrs by APC Annexin V/eFluor-780-viability double staining-based FACS analysis (reference value: 5.80%); type: functional
RPMI-8226 [11] = experiment: Induction of apoptosis in human RPMI8226 cells assessed as viable cells at 1 uM after 72 hrs by APC Annexin V/eFluor-780-viability double staining-based FACS analysis (reference value: 87.3%); type: functional; details: RPMI-8226, 72 h, read-out: Activity
RPMI-8226 [12] = experiment: Induction of apoptosis in human RPMI8226 cells assessed as necrotic cells at 1 uM after 72 hrs by APC Annexin V/eFluor-780-viability double staining-based FACS analysis (reference value: 3.60%); type: functional
RPMI-8226 [13] = experiment: Induction of apoptosis in human RPMI8226 cells assessed as early apoptotic cells at 1 uM after 72 hrs by APC Annexin V/eFluor-780-viability double staining-based FACS analysis (reference value: 3.31%); type: functional
RPMI-8226 [14] = experiment: Induction of apoptosis in human RPMI8226 cells assessed as late apoptotic cells at 10 nM after 72 hrs by APC Annexin V/eFluor-780-viability double staining-based FACS analysis (reference value: 5.80%); type: functional
RPMI-8226 [15] = experiment: Induction of apoptosis in human RPMI8226 cells assessed as viable cells at 10 nM after 72 hrs by APC Annexin V/eFluor-780-viability double staining-based FACS analysis (reference value: 87.3%); type: functional; details: RPMI-8226, 72 h, read-out: Activity
RPMI-8226 [16] = experiment: Induction of apoptosis in human RPMI8226 cells at 10 nM after 72 hrs in presence of GGOH by APC Annexin V/eFluor-780-viability double staining-based FACS analysis; type: functional, cell-based
RPMI-8226 [17] = experiment: Induction of apoptosis in human RPMI8226 cells assessed as early apoptotic cells at 10 nM after 72 hrs by APC Annexin V/eFluor-780-viability double staining-based FACS analysis (reference value: 3.31%); type: functional
RPMI-8226 [18] = experiment: Induction of apoptosis in human RPMI8226 cells assessed as necrotic cells at 10 nM after 72 hrs by APC Annexin V/eFluor-780-viability double staining-based FACS analysis (reference value: 3.60%); type: functional
[19] = molecular target: Geranylgeranyl pyrophosphate synthase (Homo sapiens, UniProt O95749, Y246D)
Sequence of Geranylgeranyl pyrophosphate synthase (Homo sapiens, UniProt O95749, Y246D) (O95749 whole entry Y246D): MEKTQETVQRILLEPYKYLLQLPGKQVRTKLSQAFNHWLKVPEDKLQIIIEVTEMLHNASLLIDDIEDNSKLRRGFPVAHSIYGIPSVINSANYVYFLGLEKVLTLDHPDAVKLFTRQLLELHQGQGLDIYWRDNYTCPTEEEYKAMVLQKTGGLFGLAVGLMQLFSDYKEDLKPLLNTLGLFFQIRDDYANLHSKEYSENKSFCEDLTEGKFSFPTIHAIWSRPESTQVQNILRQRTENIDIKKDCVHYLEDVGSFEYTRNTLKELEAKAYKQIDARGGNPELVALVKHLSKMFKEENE

RPMI-8226 [20] = experiment: Antiproliferative activity against human RPMI8226 cells at 10 uM after 72 hrs by MTT assay; type: functional, cell-based
[21] = molecular target: T1, Farnesyl pyrophosphate synthase (Homo sapiens); experiment: Inhibition of human FPPS at 10 uM using [14C]-IPP and […] after 10 mins by scintillation counting
[22] = molecular target: T5, Geranylgeranyl pyrophosphate synthase (Homo sapiens) (UniProt O95749); experiment: Inhibition of human N-terminal His6-tagged GGPPS expressed in Escherichia coli BL21(DE3) at 10 uM using [14C]-IPP and FPP as substrates after 10 mins by scintillation counting
T5 sequence (whole entry): T3 sequence (O95749 whole entry)

[23] = molecular target: T5, Geranylgeranyl pyrophosphate synthase (Homo sapiens); experiment: Inhibition of human N-terminal His6-tagged GGPPS expressed in Escherichia coli BL21(DE3) at 1 uM using [14C]-IPP and FPP as substrates after 10 mins by scintillation counting relative to control
RPMI-8226 [24] = experiment: Induction of apoptosis in human RPMI8226 cells after 72 hrs by APC Annexin V/eFluor-780-viability double staining-based FACS analysis; type: functional, cell-based
Homo sapiens = species on record: Homo sapiens; experiment: Selectivity ratio of IC50 for human FPPS to IC50 for human N-terminal His6-tagged GGPPS

SMILES: CC(C)=CCC/C(C)=C/CC/C(C)=C/CC/C(C)=C/CO [GERANYLGERANIOL]
- Activity (RPMI-8226 [1]): 4.96%
- Activity (RPMI-8226 [2]): 4.71%
- viability at 10 µM (RPMI-8226 [3]): 87.4%
- Activity (RPMI-8226 [4]): 2.91%

SMILES: O=C(Nc1cccc(-c2nc(NC(P(=O)(O)O)P(=O)(O)O)c3ccsc3n2)c1)c1ccc(F)cc1
- inhibition [5]: 20%
- IC50 [6]: > 1000 nM
- IC50 [7]: 42 nM
- Activity [8]: Active

SMILES: O=P(O)(O)C(Nc1ncnc2sc(-c3ccc(C(F)(F)F)cc3)cc12)P(=O)(O)O
- EC50 (RPMI-8226 [9]): > 100000 nM
- IC50 [7]: 1500 nM

SMILES: COc1ccc(NC(=O)c2cccc(-c3nc(NC(P(=O)(O)O)P(=O)(O)O)c4ccsc4n3)c2)cc1
- Activity (MIA PaCa-2): Active
- Activity (T98G): Active
- Activity (HCT-116): Active
- Activity (A549): Active
- IC50 [6]: 1300 nM
- EC50 (RPMI-8226 [9]): 230 nM
- IC50 [7]: 75 nM
- Activity (NCI/ADR-RES): Active
- Activity (HT-1080): Active
- Activity (HT-29): Active

SMILES: O.O=P(O)(O)C(O)(Cn1ccnc1)P(=O)(O)O [ZOLEDRONIC ACID]
- Activity (Hydroxyapatite): Active
- Activity (RPMI-8226 [10]): 6.53%
- viability at 1 µM (RPMI-8226 [11]): 85.9%
- Activity (RPMI-8226 [12]): 5.04%
- Activity (RPMI-8226 [13]): 2.55%

SMILES: O=P(O)(O)C(Nc1nc(-c2ccccc2)nc2sccc12)P(=O)(O)O
- IC50 [6]: 550 nM

SMILES: CC(C)C[C@H](NC(=O)[C@H](Cc1ccccc1)NC(=O)c1cnccn1)B(O)O [BORTEZOMIB]
- Activity (RPMI-8226 [14]): 78.7%
- viability at 0.01 µM (RPMI-8226 [15]): 0.92%
- Activity (RPMI-8226 [16]): Active
- Activity (RPMI-8226 [17]): 0.26%
- Activity (RPMI-8226 [18]): 20.1%

SMILES: O=C(Nc1ccccc1)c1cccc(-c2nc(NC(P(=O)(O)O)P(=O)(O)O)c3ccsc3n2)c1
- Activity (Hydroxyapatite): Active
- EC50 (RPMI-8226 [9]): 460 nM
- IC50 [7]: 49 nM
- IC50 [19]: 50 nM

SMILES: COc1ccc(C(=O)Nc2cccc(-c3nc(NC(P(=O)(O)O)P(=O)(O)O)c4ccsc4n3)c2)cc1
- IC50 [19]: 92 nM

SMILES: O=C(Nc1cccc(-c2cc3c(NC(P(=O)(O)O)P(=O)(O)O)ncnc3s2)c1)c1ccccc1
- Activity (RPMI-8226 [20]): inactive
- inhibition [21]: inactive
- inhibition [22]: inactive

SMILES: O=P(O)(O)C(Nc1ncnc2sccc12)P(=O)(O)O
- inhibition [5]: 70%
- IC50 [6]: 800 nM
- IC50 [7]: > 1000 nM
- inhibition [23]: 40%

SMILES: Cc1ccc(C(=O)Nc2cccc(-c3nc(NC(P(=O)(O)O)P(=O)(O)O)c4ccsc4n3)c2)cc1
- Activity (RPMI-8226 [24]): Dose-dependent effect
- IC50 [6]: 2600 nM
- EC50 (RPMI-8226 [9]): 720 nM

SMILES: O=P(O)(O)C(O)(Cc1ccccn1)P(=O)(O)O
- Activity (Hydroxyapatite): Active
- EC50 (RPMI-8226 [9]): 11000 nM

SMILES: O=C(Nc1cccc(-c2nc(NC(P(=O)(O)O)P(=O)(O)O)c3ccsc3n2)c1)c1ccccc1
- EC50 (RPMI-8226 [9]): 500 nM
- Ratio IC50 (Homo sapiens): 30
- IC50 [19]: 39 nM
